Laboratory results: ChEMBL document CHEMBL3407382, “Syntheses of chondroitin sulfate tetrasaccharide structures containing 4,6-disulfate patterns and analysis of their interaction with glycosaminoglycan-binding protein” (Bioorg Med Chem Lett, 2015)

Each compound was assayed against Fibroblast growth factor 2 (Homo sapiens, UniProt P09038) (assay: Binding affinity to FGF2 (unknown origin) assessed as change in luminance intensity at 25 degC by SPR imaging sensor method). Conditions: not given; call rule not given here.
Sequence of Fibroblast growth factor 2 (P09038 143-288 limits assumed): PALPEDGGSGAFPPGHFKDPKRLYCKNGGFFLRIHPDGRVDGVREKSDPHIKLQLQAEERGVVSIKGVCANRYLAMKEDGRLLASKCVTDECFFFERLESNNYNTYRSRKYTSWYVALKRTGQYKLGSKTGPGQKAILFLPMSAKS

SMILES | Kd
CC(=O)N[C@H]1[C@H](OC[C@@H](O)[C@@H](O)[C@H](O)[C@@H](O)CNc2cccc(NC(=O)CCCCC3CCSS3)c2)O[C@H](COS(=O)(=O)[O-])[C@H](OS(=O)(=O)[O-])[C@@H]1O[C@@H]1O[C@H](C(=O)O)[C@@H](O[C@@H]2O[C@H](COS(=O)(=O)[O-])[C@H](O)[C@H](O[C@@H]3O[C@H](C(=O)O)[C@@H](O)[C@H](O)[C@H]3O)[C@H]2NC(C)=O)[C@H](O)[C@H]1O.[Na+].[Na+].[Na+] (stereo partly drawn) | Not Active
CC(=O)N[C@H]1[C@H](O[C@H]2[C@H](O)[C@@H](OS(=O)(=O)O)[C@H](O[C@H]3[C@@H](O)[C@@H](COS(=O)(=O)O)O[C@@H](OC[C@@H](O)[C@@H](O)[C@H](O)[C@@H](O)CNc4cccc(NC(=O)CCCCC5CCSS5)c4)[C@@H]3NC(C)=O)O[C@@H]2C(=O)O)O[C@H](COS(=O)(=O)O)[C@H](O)[C@@H]1O[C@@H]1O[C@H](C(=O)O)[C@@H](O)[C@H](O)[C@H]1O (stereo partly drawn) | Not Active

Same assay, conditions: read-out: Kd

SMILES | Kd [nM]
CC(=O)N[C@H]1[C@H](OCC(O)C(O)C(O)C(O)CNc2cccc(NC(=O)CCCCC3CCSS3)c2)O[C@H](COS(=O)(=O)O)[C@H](OS(=O)(=O)O)[C@@H]1O[C@@H]1O[C@H](C(=O)O)[C@@H](O[C@@H]2O[C@H](COS(=O)(=O)O)[C@H](O)[C@H](O[C@@H]3O[C@H](C(=O)O)[C@@H](O)[C@H](O)[C@H]3OS(=O)(=O)O)[C@H]2NC(C)=O)[C@H](O)[C@H]1OS(=O)(=O)O (stereo partly drawn) | 16
CC(=O)N[C@H]1[C@H](O[C@H]2[C@H](O)[C@@H](O)[C@H](O[C@@H]3[C@@H](NC(C)=O)[C@H](OC[C@@H](O)[C@@H](O)[C@H](O)[C@@H](O)CNc4cccc(NC(=O)CCCCC5CCSS5)c4)O[C@H](CO)[C@@H]3OS(=O)(=O)O)O[C@@H]2C(=O)O)O[C@H](COS(=O)(=O)O)[C@H](OS(=O)(=O)O)[C@@H]1O[C@@H]1O[C@H](C(=O)O)[C@@H](O)[C@H](O)[C@H]1O (stereo partly drawn) | 5.6
CC(=O)N[C@H]1[C@H](O[C@H]2[C@H](O)[C@@H](O)[C@H](O[C@H]3[C@@H](O)[C@@H](COS(=O)(=O)O)O[C@@H](OC[C@@H](O)[C@@H](O)[C@H](O)[C@@H](O)CNc4cccc(NC(=O)CCCCC5CCSS5)c4)[C@@H]3NC(C)=O)O[C@@H]2C(=O)O)O[C@H](COS(=O)(=O)O)[C@H](OS(=O)(=O)O)[C@@H]1O[C@@H]1O[C@H](C(=O)O)[C@@H](O)[C@H](O)[C@H]1O (stereo partly drawn) | 8.2
CC(=O)N[C@H]1[C@H](O[C@H]2[C@H](O)[C@@H](O)[C@H](O[C@@H]3[C@@H](NC(C)=O)[C@H](OC[C@@H](O)[C@@H](O)[C@H](O)[C@@H](O)CNc4cccc(NC(=O)CCCCC5CCSS5)c4)O[C@H](COS(=O)(=O)O)[C@@H]3OS(=O)(=O)O)O[C@@H]2C(=O)O)O[C@H](COS(=O)(=O)O)[C@H](OS(=O)(=O)O)[C@@H]1O[C@@H]1O[C@H](C(=O)O)[C@@H](O)[C@H](O)[C@H]1O (stereo partly drawn) | 5.2
CC(=O)N[C@H]1[C@H](OC[C@@H](O)[C@@H](O)[C@H](O)[C@@H](O)CNc2cccc(NC(=O)CCCCC3CCSS3)c2)O[C@H](COS(=O)(=O)O)[C@H](O)[C@@H]1O[C@@H]1O[C@H](C(=O)O)[C@@H](O[C@@H]2O[C@H](COS(=O)(=O)O)[C@H](O)[C@H](O[C@@H]3O[C@H](C(=O)O)[C@@H](O)[C@H](O)[C@H]3OS(=O)(=O)O)[C@H]2NC(C)=O)[C@H](O)[C@H]1OS(=O)(=O)O (stereo partly drawn) | 48
CC(=O)N[C@H]1[C@H](O[C@H]2[C@H](O)[C@@H](OS(=O)(=O)O)[C@H](O[C@H]3[C@@H](O)[C@@H](COS(=O)(=O)O)O[C@@H](OC[C@@H](O)[C@@H](O)[C@H](O)[C@@H](O)CNc4cccc(NC(=O)CCCCC5CCSS5)c4)[C@@H]3NC(C)=O)O[C@@H]2C(=O)O)O[C@H](COS(=O)(=O)O)[C@H](OS(=O)(=O)O)[C@@H]1O[C@@H]1O[C@H](C(=O)O)[C@@H](O)[C@H](O)[C@H]1O (stereo partly drawn) | 4.7
